Results reported in the OPERA property sets (Mansouri et al. 2018).

`Clc1cc(Cl)c2oc3cc(Cl)c(Cl)cc3c2c1` and `Clc1cc2oc3c(Cl)c(Cl)c(Cl)cc3c2cc1Cl` are within 0.2 log units of each other in logP: 6.73 for the first, 6.92 for the second.

Going from `Clc1cc(Cl)c2c(oc3c(Cl)cccc32)c1Cl` to `Clc1cc2c(oc3c(Cl)cccc32)c(Cl)c1Cl`, the logP falls from 6.31 to 6.11.

Compared with `Clc1cc(Cl)c2oc3c(Cl)c(Cl)ccc3c2c1`, `Clc1cc(Cl)c2oc3c(Cl)c(Cl)c(Cl)cc3c2c1` is higher in logP: 6.25 for the first, 6.59 for the second.

`Clc1ccc2c(c1)oc1c(Cl)c(Cl)cc(Cl)c12` and `Clc1cc2oc3c(Cl)c(Cl)ccc3c2cc1Cl` are within 0.2 log units of each other in logP: 6.23 for the first, 6.31 for the second.

`Clc1cc(Cl)c2c(c1)oc1c(Cl)cc(Cl)cc12` and `Clc1cc(Cl)c2c(c1)oc1cc(Cl)cc(Cl)c12` are within 0.2 log units of each other in logP: 6.37 for the first, 6.34 for the second.

Going from `Clc1c(Cl)c(Cl)c2c(oc3ccccc32)c1Cl` to `Clc1ccc2oc3c(Cl)c(Cl)c(Cl)c(Cl)c3c2c1`, the logP rises from 6.17 to 6.79.

Going from `Clc1cc2oc3cc(Cl)c(Cl)c(Cl)c3c2cc1Cl` to `Clc1cc2oc3ccc(Cl)c(Cl)c3c2cc1Cl`, the logP falls from 6.79 to 6.23.

First: Clc1cc(Cl)c2oc3c(Cl)c(Cl)cc(Cl)c3c2c1
Second: Clc1cc(Cl)c2c(oc3ccc(Cl)c(Cl)c32)c1Cl
The logP of the first is lower: 6.24 for the first, 6.51 for the second.

First: Clc1cc2c(oc3c(Cl)c(Cl)c(Cl)c(Cl)c32)c(Cl)c1Cl
Second: Clc1cc(Cl)c2oc3c(Cl)ccc(Cl)c3c2c1Cl
The logP of the first is higher: 7.92 for the first, 6.59 for the second.

`Clc1cc2oc3cc(Cl)c(Cl)cc3c2cc1Cl` gave a logP of 6.53.
